Data on one molecule can be found in patent US20140186306A1, “NOVEL AMPK AGONIST COMPOSITIONS AND METHODS OF USE” (priority 2012, published 2014).

Series [1] concerns horses with joint and/or soft tissue lameness. Put plainly: Clinical response of racing and non-racing horses with joint and/or soft tissue lameness to AICAR injected intra-articularly or locally infiltrated. It is filed as in vivo, horse. The note with it: all treated horses; localized injection of 1.3 mg/ml AICAR.
Protocol: In the examples below the novel or test composition indicated as NOVEL was comprised of 1.3 mg/ml solutions of AICAR. The purpose of this study was to evaluate the clinical response of racing and non-racing horses with joint and/or soft tissue lameness to various doses of AICAR, either injected intra-articularly or locally infiltrated into the affected soft tissue structure. […] In most cases, multiple joints or soft tissue structures per animal were treated. In some cases, joints and soft tissue structures were injected simultaneously.
Addition of 0.5 ml of an aminoglycoside antibiotic per 2.5 ml vial of AICAR was left up to the discretion of the attending veterinarian. Prior to the treatment, each case was graded for lameness, swelling and heat, and pain. Each injected joint received either one, 1.3 mg/ml, 2.5 ml dose (3.25 mg) for a small joint, or two, 2.5 ml dose vials for large (stifle) joints. Soft tissue structures, including tendons and tendon sheaths, suspensory ligaments, exostoses (splints), periosteal osteitis, and perineural injections were done with multiple vials of the AICAR. The dose was dependent upon the perceived surface area to be treated. The horses were re-examined at various times post-injection as most horses were stabled at locations remote to the veterinarians. All cases were followed up by telephone calls to trainers/caretakers within 24 hours. […]
Series [2] has as its system mice. The note with it: oral dose of 500 mg/Kg/day over a 4 week period; cited from earlier work.
The conditions of series [3]: human, in vivo, cited from earlier work.

As to `NC(=O)c1ncn([C@@H]2O[C@H](CO)[C@@H](O)[C@H]2O)c1N` [AICAR, 5-amino-1-β-D-ribofuranosyl-imidazole-4-carboxamide], the adverse events result in series [1] is listed as “No adverse events were reported with the exception of transient swelling of a fetlock that was traumatically injected”. Also, the performance-enhancing activity result in series [2] was “performance-enhancing activity”. In addition, in series [3] (po), the oral bioavailability result was “less than 5%”. Besides, in series [3], the plasma clearance was 36.7 mL/min/kg.
